In the supplement of paper PMC10307832:

Columns and labels:
Assay in all cases: relative viability (nuclei count vs DMSO), 5 days (fraction); higher = more cells survive
[1] = compound: C/C(=N\NC(=S)N1CCC1)/C2=CC=CC=N2 + CC1(C)CCC(c2ccc(Cl)cc2)=C(CN2CCN(c3ccc(C(=O)NS(=O)(=O)c4ccc(N[C@H](CCN5CCOCC5)CSc5ccccc5)c(S(=O)(=O)C(F)(F)F)c4)cc3)CC2)C1 [Navitoclax] (partner 0.5 µM)
Method in brief: (§1)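 Relative viability equals treated-well nuclei counts divided by vehicle-well nuclei counts. Counts came from 4× images of lung cancer cell lines grown in 1536-well plates for 5 days after pin-tool dosing on the day after seeding. Dosing used one drug alone or a fixed anchor-drug dose plus five library-drug doses (not always all listed) in √10 steps, and values are medians of duplicate plates.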

[2] = compound: C/C(=N\NC(=S)N1CCC1)/C2=CC=CC=N2 + CC(C)C[C@H](NC(=O)[C@H](Cc1ccccc1)NC(=O)c1cnccn1)B(O)O [Bortezomib] (partner 0.002 µM)
Method in brief: as §1

[3] = compound: C/C(=N\NC(=S)N1CCC1)/C2=CC=CC=N2 + Cc1nc(Nc2ncc(C(=O)Nc3c(C)cccc3Cl)s2)cc(N2CCN(CCO)CC2)n1 [Dasatinib] (partner 0.075 µM)
Method in brief: as §1

[4] = compound: C/C(=N\NC(=S)N1CCC1)/C2=CC=CC=N2 + CCNC(=O)c1noc(-c2cc(C(C)C)c(O)cc2O)c1-c1ccc(CN2CCOCC2)cc1 [Luminespib] (partner 0.01 µM)
Method in brief: as §1

Row | Cell Line | relative viability ([1]; first compound 0.05 µM) | relative viability ([1]; first compound 0.1581 µM) | relative viability ([1]; first compound 0.5 µM) | relative viability ([1]; first compound 1.581 µM) | relative viability ([1]; first compound 5 µM) | relative viability ([2]; first compound 0.05 µM) | relative viability ([2]; first compound 0.1581 µM) | relative viability ([2]; first compound 0.5 µM) | relative viability ([2]; first compound 1.581 µM) | relative viability ([2]; first compound 5 µM) | relative viability ([3]; first compound 0.05 µM) | relative viability ([3]; first compound 0.1581 µM) | relative viability ([3]; first compound 0.5 µM) | relative viability ([3]; first compound 1.581 µM) | relative viability ([3]; first compound 5 µM) | relative viability ([4]; first compound 0.05 µM) | relative viability ([4]; first compound 0.1581 µM) | relative viability ([4]; first compound 0.5 µM) | relative viability ([4]; first compound 1.581 µM) | relative viability ([4]; first compound 5 µM)
1 | NCI-H838 | 0.259 | 0.258 | 0.229 | 0.192 | 0.225 | 0.165 | 0.181 | 0.172 | 0.134 | 0.145 | 0.203 | 0.198 | 0.223 | 0.201 | 0.187 | 0.111 | 0.15 | 0.132 | 0.125 | 0.14
2 | NCI-H1355 | 0.181 | 0.718 | 0.129 | 0.143 | 0.165 | 0.2 | 0.205 | 0.21 | 0.212 | 0.195 | 0.198 | 0.194 | 0.187 | 0.168 | 0.15 | 0.176 | 0.179 | 0.192 | 0.167 | 0.173
3 | NCI-H1437 | 0.166 | 0.142 | 0.152 | 0.109 | 0.0981 | 0.121 | 0.137 | 0.0867 | 0.0717 | 0.0851 | 0.0967 | 0.128 | 0.0689 | 0.0833 | 0.122 | 0.238 | 0.215 | 0.216 | 0.18 | 0.14
4 | NCI-H1650 | 0.13 | 0.173 | 0.142 | 0.181 | 0.214 | 0.177 | 0.2 | 0.182 | 0.188 | 0.168 | 0.154 | 0.172 | 0.167 | 0.157 | 0.183 | 0.182 | 0.185 | 0.2 | 0.168 | 0.174
5 | NCI-H1651 | 0.0866 | 0.0844 | 0.0783 | 0.0702 | 0.081 | 0.167 | 0.149 | 0.151 | 0.15 | 0.137 | 0.195 | 0.174 | 0.126 | 0.0657 | 0.0655 | 0.13 | 0.157 | 0.127 | 0.0971 | 0.138
6 | NCI-H1666 | 0.185 | 0.248 | 0.208 | 0.248 | 0.262 | 0.218 | 0.271 | 0.232 | 0.198 | 0.221 | 0.335 | 0.307 | 0.301 | 0.28 | 0.296 | 0.386 | 0.391 | 0.347 | 0.311 | 0.287
7 | NCI-H1734 | 0.0989 | 0.104 | 0.0882 | 0.0843 | 0.0776 | 0.228 | 0.205 | 0.174 | 0.123 | 0.107 | 0.152 | 0.12 | 0.148 | 0.112 | 0.089 | 0.123 | 0.105 | 0.116 | 0.118 | 0.117
8 | NCI-H1755 | 0.321 | 0.928 | 0.142 | 0.18 | 0.186 | 0.331 | 0.287 | 0.208 | 0.206 | 0.204 | 0.16 | 0.202 | 0.157 | 0.198 | 0.247 | 0.191 | 0.184 | 0.198 | 0.243 | 0.275
9 | NCI-H1792 | 0.256 | 0.274 | 0.127 | 0.0935 | 0.084 | 0.478 | 0.5 | 0.219 | 0.16 | 0.126 | 0.483 | 0.294 | 0.256 | 0.271 | 0.196 | 0.23 | 0.187 | 0.176 | 0.169 | 0.157
10 | NCI-H1915 | 0.522 | 0.742 | 0.169 | 0.15 | 0.137 | 0.319 | 0.182 | 0.159 | 0.149 | 0.137 | 0.117 | 0.132 | 0.123 | 0.115 | 0.142 | 0.126 | 0.108 | 0.111 | 0.121 | 0.107
11 | NCI-H1975 | 0.169 | 0.143 | 0.152 | 0.163 | 0.168 | 0.15 | 0.144 | 0.134 | 0.147 | 0.156 | 0.104 | 0.0967 | 0.0846 | 0.0879 | 0.0899 | 0.118 | 0.148 | 0.206 | 0.107 | 0.151
12 | NCI-H1993 | 0.664 | 0.662 | 0.638 | 0.511 | 0.533 | 0.431 | 0.506 | 0.463 | 0.406 | 0.483 | 0.433 | 0.525 | 0.525 | 0.434 | 0.435 | 0.455 | 0.496 | 0.517 | 0.428 | 0.509
13 | NCI-H2009 | 0.1 | 0.136 | 0.0927 | 0.158 | 0.131 | 0.117 | 0.126 | 0.138 | 0.122 | 0.0916 | 0.112 | 0.143 | 0.145 | 0.122 | 0.103 | 0.128 | 0.146 | 0.15 | 0.186 | 0.127
14 | NCI-H2023 | 0.0701 | 0.096 | 0.0791 | 0.0888 | 0.0996 | 0.096 | 0.0935 | 0.0847 | 0.0887 | 0.0763 | 0.0588 | 0.071 | 0.0685 | 0.0516 | 0.0624 | 0.067 | 0.0631 | 0.0621 | 0.0569 | 0.0694
15 | NCI-H2085 | 0.246 | 0.248 | 0.245 | 0.248 | 0.281 | 0.33 | 0.298 | 0.323 | 0.269 | 0.262 | 0.209 | 0.219 | 0.27 | 0.259 | 0.229 | 0.236 | 0.274 | 0.281 | 0.234 | 0.211
16 | NCI-H2087 | 0.248 | 0.212 | 0.185 | 0.146 | 0.18 | 0.219 | 0.223 | 0.309 | 0.132 | 0.125 | 0.129 | 0.15 | 0.15 | 0.107 | 0.0833 | 0.116 | 0.0944 | 0.159 | 0.142 | 0.137
